This note sets out measurements from publication PMC6687188, “Novel lactate dehydrogenase inhibitors with in vivo efficacy against Cryptosporidium parvum” (PLoS Pathogens, 2019).

The structures appear in SMILES notation. Residues, ends and D or L forms follow the SMILES beside them. *: point of attachment. CH2Cl = ClC*

The target in this experiment is recombinant CpLDH protein (Cryptosporidium parvum, UniProt Q9GT92, F198L/K295E/R251K).
In the case of `Cn1ncc2cc3c(Nc4ccc(Cl)cc4)cccc3nc21` [NSC622732], the “MEAN CpLDH INHIBITION (%)” value is on record as -35.66%.
In the case of `Nc1nc2c(ncn2[C@@H]2O[C@H](CO)[C@@H](O)[C@H]2O)c(=O)[nH]1` [NSC19994] it was -14.24%.
Turning to `CC1CCOC(=O)/C=C/C=C/C(=O)OC2CC3OC4C5OC5(C)C(O)CC4(COC(=O)C1O)C2(C)C31CO1` (stereo not shown) [NSC328166], the “MEAN CpLDH INHIBITION (%)” value is -4.71%.
Consider `O=C(CCc1ccccc1)On1nnc2ccccc2c1=O` [NSC630374], for which the “MEAN CpLDH INHIBITION (%)” value is -20.24%.
With `COc1ccc(C(=O)/C(Br)=C\C(=O)[O-])cc1.[Na+]` [NSC104801] the figure was -32.70%.
Consider `CCOc1cccc(/C=N/N=C2\C(=O)Nc3c(Cl)cc(Cl)cc32)c1O` [NSC329277], for which the “MEAN CpLDH INHIBITION (%)” value was -1.09%.
As to `OC[C@H]1O[C@@H](n2cnc3cncnc32)[C@H](O)[C@@H]1O` [NSC65423], the “MEAN CpLDH INHIBITION (%)” value is recorded as -32.77%.
In the case of `Fc1cccc(F)c1C1SCc2nc3ccccc3n21` (stereo not shown) [NSC625487] it was -32.18%; in that of `N#CCCN(CCC#N)c1ccc(/C=C2\N=C(c3cc([N+](=O)[O-])ccc3Cl)OC2=O)cc1` [NSC637916], -14.05%; in that of `O=C(c1ccccc1)C1OC12C(=O)Nc1c(Cl)cc(Cl)cc12` (stereo not shown) [NSC635306], -37.53%.
For `O=[N+]([O-])c1ccc(N=Nc2c(O)[nH]c3ccccc23)c([N+](=O)[O-])c1` [NSC4810], the “MEAN CpLDH INHIBITION (%)” value is -33.40%.
In the case of `COc1cc(C(O)CCBr)c(OC)cc1C` (stereo not shown) [NSC611750] it was -11.25%; in that of `Cc1ccc(S(=O)(=O)c2ccccc2[N+](=O)[O-])cc1` [NSC627708], -13.84%.
In the case of `C[Si](C)(CN)CN.[Cl][Pt][Cl]` [NSC603577] it was -0.38%; in that of `Cc1ccccc1NC(=O)/C=N/O` [NSC625639], -116.71%.
Regarding `CC(=O)OCc1cc(=O)n(C)c2c3c4c(cc12)c(C)cc(=O)n4CO3` [NSC157004], the “MEAN CpLDH INHIBITION (%)” value was -1.50%.
In the case of `C[C@@H](N)C(=O)NC(CO)C(O)C(N)C=O.Cl` (stereo partly shown) [NSC278619] it was -43.32%.
As to `C1COCCN1.S=C(S)N1CCOCC1` [NSC4114], the “MEAN CpLDH INHIBITION (%)” value is listed as -42.22%.
With `CN(C)CCNC(=O)c1cccc2[nH]c(-c3ccncc3)nc12.Cl` [NSC678932], the “MEAN CpLDH INHIBITION (%)” value is recorded as -5.91%.
With `Cc1ccc(NC(=O)c2cccc([N+](=O)[O-])c2O)c([N+](=O)[O-])c1` [NSC82025] the figure was -16.46%; with `O=C1c2cccc(O)c2C(=O)c2c(O)cccc21` [NSC7210], -48.97%; with `CC(=O)O[C@@H]1C[C@H]2O[C@@H]3C=C(C)CC[C@]3(C)[C@]1(C)[C@]21CO1` [NSC267033], -8.12%.
Consider `N[C@@H](CSC(c1ccccc1)(c1ccccc1)c1ccccc1)C(=O)O` [NSC83265], for which the “MEAN CpLDH INHIBITION (%)” value is -6.04%.
In the case of `O=C(CC1(O)C(=O)Nc2c(Cl)cc(Cl)cc21)c1cccc([N+](=O)[O-])c1` (stereo not shown) [NSC635438] it was -43.53%; in that of `Nc1ncnc2c1nnn2[C@@H]1O[C@H](CO)[C@@H](O)[C@H]1O` [NSC72961], -2.40%.
As to `CN(C)C(=S)/N=c1\ssc(=S)n1Cc1ccccn1` [NSC645617], the “MEAN CpLDH INHIBITION (%)” value is on record as -28.16%.
On to `COc1ccc(N=Cc2ccc(N(CCC#N)S(=O)(=O)c3ccccc3)cc2C)cc1` [NSC643599], for which the “MEAN CpLDH INHIBITION (%)” value is given as -33.57%.
On to `O=C1OC(c2ccccc2)=N/C1=C\c1ccc(N(CCCl)CCCl)cc1` [NSC104117], for which the “MEAN CpLDH INHIBITION (%)” value is on record as -18.47%.
With `COc1ccc(C2=Nc3ccccc3SC(C)C2)cc1` (stereo not shown) [NSC636817] the figure was -5.00%; with `Cc1ccc(S(=O)(=O)N2CCSCCSCCSCCSCC2)cc1` [NSC650792], -46.61%; with `C=C1C(=O)OCC2C(C(=O)O)=CC3C(C)C(C)=CC123` (stereo not shown) [NSC145150], -64.31%.
In the case of `CSCC(CO)NC(=O)/C=C/c1c(C)[nH]c(=O)[nH]c1=O` (stereo not shown) [NSC233872] it was -35.08%; in that of `C=C1CC(Cn2cc(Br)c(=O)[nH]c2=O)(c2ccc(-c3ccccc3)cc2)OC1=O` (stereo not shown) [NSC668260], -9.25%.
In the case of `CC(=O)NC(CC(C)C)C(=O)NC(Cc1ccccc1)C(=O)CCl` (stereo not drawn) [NSC173905] (Ac-Leu-Phe-CH2Cl; configuration not given here) it was -39.37%; in that of `CC(C)(C)[Si](C)(C)OCC1CCC(n2cnc3c(N)ncnc32)O1` (stereo not shown) [NSC616355], -24.91%.
For the compound `O=NN(CCCl)C(=O)NCc1ccc[n+]([O-])c1` [NSC307454], the “MEAN CpLDH INHIBITION (%)” value is on record as -54.21%.
As for `O=C1NC(c2cccc3ccccc23)Nc2ccccc21` (stereo not shown) [NSC145669], the “MEAN CpLDH INHIBITION (%)” value is on record as 0.07%.
For `O=C(c1ccccc1)C(c1ccccc1)C1(O)C(=O)Nc2c(Cl)cc(Cl)cc21` (stereo not shown) [NSC635312], the “MEAN CpLDH INHIBITION (%)” value is -41.63%.
With `CC[C@@]1(O)C(=O)OCc2c1cc1n(c2=O)Cc2cc3c(N)cccc3nc2-1` [NSC629971] the figure was -14.81%; with `CCNC(=O)OCc1c(COC(=O)NCC)c(-c2ccc(Cl)c(Cl)c2)n2c1CCC2` [NSC267700], -49.53%.
In the case of `O=C1CCC(c2ccccc2)=NN1c1nc2ccccc2s1` [NSC629659] it was -32.05%.
In the case of `COc1cc(CC(=O)c2cc3c(cc2-c2ccccc2)OCO3)cc(OC)c1OC` [NSC648419], the “MEAN CpLDH INHIBITION (%)” value is reported as -12.60%.
`CCC[CH2][Sn]1([CH2]CCC)[S]CC[N]1S(=O)(=O)c1ccc(C)cc1` [NSC183359]: the “MEAN CpLDH INHIBITION (%)” value was -29.84%.
`N#CC(NCc1cccc(CNC(C#N)c2ccccc2)c1)c1ccccc1` (stereo not shown) [NSC681730]: the “MEAN CpLDH INHIBITION (%)” value is reported as -12.34%.
With `Cn1cnc([N+](=O)[O-])c1Sc1nnnn1-c1ccccc1` [NSC631152] the figure was -45.89%; with `CCCc1c(Cl)nc(Cl)nc1Cl` [NSC66914], -32.10%.
Take `CCN(CC)c1ccc2cc3ccc(=[N+](CC)CC)cc-3oc2c1.[Cl-]` [NSC44690]: the “MEAN CpLDH INHIBITION (%)” value is reported as -28.19%.
For the compound `NC(=O)NO` [NSC32065], the “MEAN CpLDH INHIBITION (%)” value is on record as -2.35%.
On to `C/C(=N\Nc1nc2ccccc2s1)c1ccncn1` [NSC693632], for which the “MEAN CpLDH INHIBITION (%)” value is recorded as 0.06%.
In the case of `NC1(C(=O)O)CCCC1` [NSC1026] it was -29.26%.
With `COc1ccc2oc(-c3ccncc3)cc(=O)c2c1` [NSC54650] the figure was -73.33%; with `NC1=C(Br)C(=O)c2ncccc2C1=O` [NSC105808], -67.00%.
With `CCOC(=O)C(C)NC(=O)N(C)C12CC3CC(CC(C3)C1)C2` (stereo not shown) [NSC208913], the “MEAN CpLDH INHIBITION (%)” value was -30.10%.
For `CSc1ccc(NC(=O)CCl)cc1` [NSC166464], the “MEAN CpLDH INHIBITION (%)” value is listed as -7.16%.
In the case of `Nc1ccc2c(c1)S(=O)(=O)c1cc(N)ccc1-2` [NSC13966], the “MEAN CpLDH INHIBITION (%)” value was -21.73%.
As to `CC1=C2C(=CO[C@H](C)[C@H]2C)C(=O)C(C(=O)O)=C1O` [NSC186], the “MEAN CpLDH INHIBITION (%)” value is listed as -47.49%.
Take `COC(=O)[C@@]12OC[C@]34[C@H]([C@@H](O)[C@@H]1O)[C@@]1(C)CC(=O)C(O)=C(C)[C@@H]1C[C@H]3OC(=O)[C@H](OC(=O)/C=C(\C)C(C)C)[C@@H]24` [NSC165563]: the “MEAN CpLDH INHIBITION (%)” value is on record as -22.46%.
Consider `COC(=O)C(=O)C(C(=O)Nc1cccc(C)c1C)C1Sc2ccccc2NC1=O` (stereo not shown) [NSC635833], for which the “MEAN CpLDH INHIBITION (%)” value is reported as -26.59%.
With `COc1cc(O)c(Cc2ccccc2O)c(O)c1C(=O)CCc1ccccc1` [NSC241906] the figure was -0.38%.
In the case of `COC1=C(C)C(=O)C2=C(C1=O)C(CO)N1C(C#N)C3CC4C(C1C2N1CCOC41)N3C` (stereo not shown) [NSC349644], the “MEAN CpLDH INHIBITION (%)” value was -64.47%.
In the case of `COC1(O)C(=O)c2ccccc2OC1(OC)c1ccccc1` (stereo not shown) [NSC95848], the “MEAN CpLDH INHIBITION (%)” value is recorded as -17.43%.
In the case of `CCN1CCC(O)(/C=C/c2ccc(C)cc2)C(C(=O)/C=C/c2ccc(C)cc2)C1.Cl` (stereo not shown) [NSC657298] it was -42.34%; in that of `COC(=O)c1ccccc1OCc1cc(=O)oc2ccc(C)cc12` [NSC623637], -23.29%.
In the case of `O=C1Nc2c(Cl)cc(Cl)cc2C1=O` [NSC26045] it was -41.99%.
With `N#CC(=S)Nc1ccc(F)cc1` [NSC369317] the figure was -8.49%; with `CCCC(=O)OCC1OC(n2ccc(N)nc2=O)C(OC(=O)CCC)C1OC(=O)CCC` (stereo not shown) [NSC138429], -38.75%; with `CC(=O)C(N1CCCCC1)C(O)(C(F)(F)F)C(F)(F)F` (stereo not shown) [NSC664327], -14.71%.
For the compound `C=C1C(=O)C2=CC1CCC(=O)C1(C)CCC(OC(C)=O)C(C)(C)C1CC2O` (stereo not shown) [NSC302979], the “MEAN CpLDH INHIBITION (%)” value is on record as -1.17%.
With `S=C=NCc1ccccc1` [NSC118976] the figure was -18.30%.
In the case of `CCCCCCCCCc1c(Cl)nc(Cl)nc1Cl` [NSC92510] it was -23.70%.
For `COc1ccc2c(c1)C=C([N+](=O)[O-])C(C1OC(C)(C)OC1C1COC(C)(C)O1)O2` (stereo not shown) [NSC618261], the “MEAN CpLDH INHIBITION (%)” value is reported as -65.69%.
With `Cc1ccc(S(=O)(=O)ON=C2CC(c3ccccc3)N(C)C(c3ccccc3)C2)cc1` (stereo not shown) [NSC351306] the figure was -39.05%; with `CC(=O)c1ccc(Oc2ccc(/C(C)=N\N=C(N)N)cc2)cc1.O=[N+]([O-])O` [NSC97911], -11.97%; with `CCc1cccc(CC)c1NC(=O)C(C#N)C1=C(Cl)C(=O)c2ccccc2C1=O` (stereo not shown) [NSC634503], -5.79%.
Turning to `CCOC(=O)c1ccc(-c2cc(C)no2)[nH]1` [NSC693053], the “MEAN CpLDH INHIBITION (%)” value was -6.53%.
Take `CN/N=C(\C)C(CN1CCCCC1)C(C1=C(O)c2ccccc2OC1)c1ccccc1.Cl` (stereo not shown) [NSC647418]: the “MEAN CpLDH INHIBITION (%)” value was -56.81%.
